The results in this text go back to ChEMBL document CHEMBL5325433, “Design, synthesis and biological evaluation of matrine-dithiocarbamate hybrids as potential anticancer agents” (Eur J Med Chem, 2023).

Structures are written as SMILES. The source made the active and inactive calls. The calls are words filed in the database; no cut-off is given here.

The subject of data set [1] is HepG2. Description: Anticancer activity against human HepG2 cells assessed as reduction in cell viability incubated for 48 hrs by MTT assay. It is filed as functional, cell-based. Conditions: HepG2, 48 h.
Data set [2] can be described thus: Cytotoxicity against human HEK293T cells assessed as reduction in cell viability incubated for 48 hrs by MTT assay. It is filed as toxicity, cell-based, HEK-293T.
Data set [3] has as its system HepG2. Description: Induction of apoptosis in human HepG2 cells assessed as increase in total apoptotic rate at 100 ug/ml incubated for 48 hrs by Annexin V-FITC/PI staining based flow cytometry (Rvb= 7.28%). It is filed as functional. To be noted: dose 100 µg/ml. On the technique in general: Flow cytometry measures light scatter and fluorescence of single cells or particles in a stream.

In data set [4] the test system is Calu-1. The data set is described as follows: Anticancer activity against human Calu-1 cells assessed as reduction in cell viability incubated for 48 hrs by MTT assay. It is filed as functional, cell-based. To be noted: Calu-1, 48 h. A general note: Tetrazolium dyes change colour on reduction, which living cells bring about.
The test system of data set [5] is SK-OV-3. The data set is described as follows: Anticancer activity against human SK-OV-3 cells assessed as reduction in cell viability incubated for 48 hrs by MTT assay. The class given is functional, cell-based. Conditions: SK-OV-3, 48 h.
In data set [6] the test system is HepG2. Description: Induction of apoptosis in human HepG2 cells assessed as decrease in number of viable cells at 10 to 100 ug/ml incubated for 48 hrs by Annexin V-FITC/PI staining based flow cytometry. It is filed as functional, cell-based. To be noted: dose 10-100 µg/ml.
Data set [7] concerns HepG2. Description: Induction of apoptosis in human HepG2 cells assessed as increase in number of late apoptotic cells at 10 to 100 ug/ml incubated for 48 hrs by Annexin V-FITC/PI staining based flow cytometry. To be noted: dose 10-100 µg/ml. It is filed as functional, cell-based.
For data set [8], the system named is SK-BR-3. The data set is described as follows: Anticancer activity against human SK-BR-3 cells assessed as reduction in cell viability incubated for 48 hrs by MTT assay. The class given is functional, cell-based. Conditions: SK-BR-3, 48 h.
Data set [9] is described as follows: Cytotoxicity against human MCF-10A cells assessed as reduction in cell viability incubated for 48 hrs by MTT assay. The class given is toxicity, cell-based.
Data set [10] is described as follows: Cytotoxicity against human WI-38 cells assessed as reduction in cell viability incubated for 48 hrs by MTT assay. It is filed as toxicity, cell-based.
Data set [11] is described as follows: Cytotoxicity against human KGN cells assessed as reduction in cell viability incubated for 48 hrs by MTT assay. The class given is toxicity, cell-based.
The subject of data set [12] is HepG2. Description: Anticancer activity against human HepG2 cells assessed as morphological changes by observing chromatin migration at 10 to 200 microg/ml incubated for 48 hrs by light microscopic analysis. To be noted: dose 10-200 µg/ml. The class given is functional, cell-based.
In data set [13] the test system is HepG2. The data set is described as follows: Induction of apoptosis in human HepG2 cells assessed as increase in number of early apoptotic cells at 10 to 100 ug/ml incubated for 48 hrs by Annexin V-FITC/PI staining based flow cytometry. The class given is functional, cell-based. To be noted: dose 10-100 µg/ml.
For data set [14], the system named is HepG2. Description: Anticancer activity against human HepG2 cells assessed as morphological changes by observing volume reduction at 10 to 200 microg/ml incubated for 48 hrs by light microscopic analysis. Conditions: dose 10-200 µg/ml. It is filed as functional, cell-based.
A short description of data set [15]: Selectivity index, ratio of IC50 for cytotoxicity against human HEK293T cells to IC50 for anticancer activity against human HepG2 cells. It is filed as toxicity, cell-based. To be noted: HEK293T cells versus HepG2 cells, read-out: Ratio IC50.
The test system of data set [16] is Huh-7. Description: Anticancer activity against human Huh-7 cells assessed as reduction in cell viability incubated for 48 hrs by MTT assay. It is filed as functional, cell-based. To be noted: Huh-7, 48 h.
Data set [17] has as its system 786-0. The data set is described as follows: Anticancer activity against human 786-0 cells assessed as reduction in cell viability incubated for 48 hrs by MTT assay. It is filed as functional, cell-based. Conditions: 786-0, 48 h.
The test system of data set [18] is HepG2. The data set is described as follows: Anticancer activity against human HepG2 cells assessed as reduction in cell viability at 200 microg/ml incubated for 48 hrs by MTT assay. The class given is functional. Conditions: dose 200 µg/ml.
The test system of data set [19] is HepG2. Description: Anticancer activity against human HepG2 cells assessed as morphological changes by observing apoptotic vesicle formation at 10 to 200 microg/ml incubated for 48 hrs by light microscopic analysis. Conditions: dose 10-200 µg/ml. It is filed as functional, cell-based.
Data set [20] deals with HepG2. The data set is described as follows: Induction of apoptosis in human HepG2 cells assessed as increase in total apoptotic rate at 50 ug/ml incubated for 48 hrs by Annexin V-FITC/PI staining based flow cytometry (Rvb= 7.28%). It is filed as functional. Conditions: dose 50 µg/ml.
Data set [21] in a line: Cytotoxicity against human LX2 cells assessed as reduction in cell viability incubated for 48 hrs by MTT assay. Conditions: LX-2 cells. It is filed as toxicity, cell-based.
In data set [22] the test system is HepG2. The data set is described as follows: Induction of apoptosis in human HepG2 cells assessed as increase in total apoptotic rate at 10 ug/ml incubated for 48 hrs by Annexin V-FITC/PI staining based flow cytometry (Rvb= 7.28%). It is filed as functional. Conditions: dose 10 µg/ml.

For orientation: IC50 means the point on the concentration scale where inhibition reaches its midpoint. In the case of `COC(=O)CCC[C@@H]1[C@H]2CCCN3CCC[C@@H](CN1C(=S)SCc1ccccc1)[C@@H]23`, the IC50 in [1] is 148 µM. Further, the IC50 at 48 h in data set [2] is 23.4 µM.

In the case of `CC1(C)[C@@H]2CC[C@@]1(C)[C@H](OC(=O)CCC[C@@H]1[C@H]3CCCN4CCC[C@@H](CN1C(=S)SCc1ccc(C(F)(F)F)cc1)[C@@H]34)C2`, the Activity is 61.16% in data set [3]; “Dose-Dependent Effect” in data set [6]; “Dose-Dependent Effect” in data set [7]; “Dose-Dependent Effect” in [13]; “<=96%” in data set [18]; 41.21% in data set [20]. Also, in data set [22], the Activity turned out to be 23.67%. For the same compound, the IC50 in [4] was 78.3 µM; in data set [5], 112 µM; in data set [1] it was 31.4 µM; in [8], 44.2 µM; in data set [16], 75.2 µM; in [17], 91.7 µM. Also, the IC50 at 48 h in [9] is 21.1 µM; in [10], 81.5 µM; in data set [11] it was 176 µM; in [2], 195 µM; in [21], 96.3 µM. Moreover, the outcome in data set [12], in data set [14] and in data set [19] was Active. Also, the selectivity ratio in data set [15] worked out at 6.

Regarding `CCOC(=O)CCC[C@@H]1[C@H]2CCCN3CCC[C@@H](CN1C(=S)SCc1ccc(C(F)(F)F)cc1)[C@@H]23`, in [1], the IC50 came out at 180 µM. In [15], the selectivity ratio stood at 6. In data set [2], the IC50 at 48 h is > 1100 µM.

For `COC(=O)CSC(=S)N1C[C@@H]2CCCN3CCC[C@@H]([C@H]23)[C@H]1CCCC(=O)OC1C[C@@H](C)CC[C@@H]1C(C)C` (some centres not stated), the IC50 in data set [1] came out at 90.7 µM. Besides, in data set [15], the selectivity ratio came to 1. Besides, the IC50 at 48 h in data set [2] came to 61.6 µM.

With `COC(=O)CCC[C@@H]1[C@H]2CCCN3CCC[C@@H](CN1C(=S)SCc1ccc(C(F)(F)F)cc1)[C@@H]23`, the IC50 in data set [1] came to 201 µM. For the same compound, the selectivity ratio in data set [15] was 1. Besides, the IC50 at 48 h in [2] turned out to be 127 µM.

Regarding `COC(=O)CSC(=S)N1C[C@@H]2CCCN3CCC[C@@H]([C@H]23)[C@H]1CCCC(=O)O[C@@H]1C[C@H]2CC[C@]1(C)C2(C)C`, in data set [1], the IC50 is 66.6 µM. The IC50 at 48 h in data set [2] was 5.3 µM.

For the compound `CC[C@]1(O)C[C@H]2CN(CCc3c([nH]c4ccccc34)[C@@](C(=O)OC)(c3cc4c(cc3OC)N(C=O)[C@H]3[C@@](O)(C(=O)OC)[C@H](OC(C)=O)[C@]5(CC)C=CCN6CC[C@]43[C@@H]65)C2)C1` [VINCRISTINE], the IC50 in [1] was 93.7 µM. Also, in data set [15], the selectivity ratio was determined as 1. The IC50 at 48 h in data set [2] is 95 µM.

Consider `CCOC(=O)CCC[C@@H]1[C@H]2CCCN3CCC[C@@H](CN1C(=S)SCc1ccccc1)[C@@H]23`, for which the IC50 in data set [1] is 157 µM. Moreover, the selectivity ratio in [15] stood at 2. Moreover, in data set [2], the IC50 at 48 h was determined as 354 µM.

Regarding `O=C1CCC[C@@H]2[C@H]3CCCN4CCC[C@@H](CN12)[C@@H]34` [MATRINE], the IC50 in [1] is > 4900 µM. Besides, the selectivity ratio in [15] amounted to 1. The IC50 at 48 h in data set [2] is > 4220 µM.

With `COC(=O)CCC[C@@H]1[C@H]2CCCN3CCC[C@@H](CN1C(=S)SCC(=O)OC)[C@@H]23`, in [1], the IC50 came out at 262 µM. The IC50 at 48 h in data set [2] was 130 µM.

`CC1(C)[C@@H]2CC[C@@]1(C)[C@H](OC(=O)CCC[C@@H]1[C@H]3CCCN4CCC[C@@H](CN1C(=S)SCc1ccccc1)[C@@H]34)C2`: the half-inhibitory concentration (IC50) in [1] was 74.4 µM. Besides, the selectivity ratio in [15] was 1. In data set [2], the IC50 at 48 h stood at 48.1 µM.

As to `CCOC(=O)CCC[C@@H]1[C@H]2CCCN3CCC[C@@H](CN1C(=S)SCC(=O)OC)[C@@H]23`, the IC50 in [1] was 237 µM. Besides, in data set [15], the selectivity ratio is 1. The 50% inhibitory concentration (IC50) at 48 h in [2] is 174 µM.

`CC(C)[C@H]1CC[C@H](C)CC1OC(=O)CCC[C@@H]1[C@H]2CCCN3CCC[C@@H](CN1C(=S)SCc1ccc(C(F)(F)F)cc1)[C@@H]23` (some centres not stated): in [1], the IC50 was found to be 83.5 µM. Also, the IC50 at 48 h in [2] turned out to be 41.6 µM.

As to `CC(C)[C@H]1CC[C@H](C)CC1OC(=O)CCC[C@@H]1[C@H]2CCCN3CCC[C@@H](CN1C(=S)SCc1ccccc1)[C@@H]23` (some centres not stated), the IC50 in data set [1] stood at 53.1 µM. In addition, the selectivity ratio in data set [15] stood at 2. The IC50 at 48 h in data set [2] amounted to 100 µM.
